Entries after “also recorded” stand apart in the source; their conditions may differ. Structures can show the parent of a compound that is named as a salt.
Assays:
[1] = target: T1, TREK-2 S331D/S364D (Homo sapiens, UniProt P57789, S326D/S359D); assay: NFx inhibition, inside-out patch-clamp; format: cell-based; settings: TREK-2 S331D/S364D (phosphorylation mimic); n = 7
T1 sequence (P57789 1-538 S326D/S359D): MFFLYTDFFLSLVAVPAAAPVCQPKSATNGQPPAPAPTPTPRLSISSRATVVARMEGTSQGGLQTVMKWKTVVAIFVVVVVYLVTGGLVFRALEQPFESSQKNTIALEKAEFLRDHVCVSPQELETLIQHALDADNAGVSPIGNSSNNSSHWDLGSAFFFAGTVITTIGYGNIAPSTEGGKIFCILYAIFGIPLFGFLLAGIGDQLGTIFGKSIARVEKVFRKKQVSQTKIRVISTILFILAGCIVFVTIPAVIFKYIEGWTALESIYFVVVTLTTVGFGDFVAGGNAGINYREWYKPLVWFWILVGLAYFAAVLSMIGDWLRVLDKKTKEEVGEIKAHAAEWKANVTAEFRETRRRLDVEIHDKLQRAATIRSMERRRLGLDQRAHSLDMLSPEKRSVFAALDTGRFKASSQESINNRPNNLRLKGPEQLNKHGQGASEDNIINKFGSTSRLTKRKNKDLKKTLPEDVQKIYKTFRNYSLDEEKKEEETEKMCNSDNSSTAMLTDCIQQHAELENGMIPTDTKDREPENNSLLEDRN
Description: We measured TREK-1 channel currents in response to 800 ms voltage ramps (− 80 mV to + 80 mV) in excised membrane patches under asymmetrical K^+ conditions (Fig. 4b).
Xenopus laevis oocytes were surgically removed from anesthetized adult females, treated with type II collagenase (Sigma-Aldrich/Merck, Germany) and manually defolliculated. A solution containing the K^+ channel-specific cRNA at a desired concentration was injected into Dumont stage V - VI oocytes and subsequently incubated at 17 °C in a solution containing (mM): 54 NaCl, […], 2.4 NaHCO3, 0.82 MgSO4 x 7 H2O, 0.41 CaCl2, 0.33 Ca(NO3)2 x 4 H2O and 7.5 TRIS (pH 7.4 adjusted with NaOH/HCl) for 1 - 7 days before use. Patch-clamp recordings in an inside-out configuration under voltage-clamp conditions were performed at room temperature (22 - 24 °C). Patch pipettes were made from thick-walled borosilicate glass GB 200TF-8P (Science Products, Germany), had resistances of 0.2 - 0.5 MΩ (tip diameter of 10 - 25 µm) and filled with a pipette solution (in mM): 120 KCl, 10 HEPES and 3.6 CaCl2 (pH 7.4 adjusted with KOH/HCl). Intracellular bath solutions and compounds were applied to the cytoplasmic side of excised patches for the various K^+ channels via a gravity flow multi-barrel pipette system. The intracellular solution had the following composition (in mM): 120 KCl, 10 HEPES, 2 EGTA, and 1 Pyrophosphate (pH adjusted with KOH/HCl). Currents were recorded with an EPC10 amplifier (HEKA electronics, Germany) and sampled at 10 kHz or higher and filtered with 3 kHz (-3 dB) or higher as appropriate for the sampling rate.
Decyl-MethaneThioSulfonate (Decyl-MTS), (2-(trimethylammonium)ethyl)MethaneThioSulfonate bromide (MTS-ET^+) and Sodium (2-sulfonatoethyl)MethaneThioSulfonate (MTS-ES^-) were purchased from Toronto Research Chemicals. MTS-ET^+ was directly dissolved to the desired concentration of 1 mM in the intracellular recording solution before each experiment. MTS-ET^+ was used immediately after dilution for maximally 5 min. Decyl-MTS and […] were prepared as 10 - 100 mM stocks in DMSO and diluted to the desired concentration before the measurements.

[2] = target: T2, TREK-2* (Homo sapiens, UniProt P57789); assay: MTS probe modification, inside-out patch-clamp; format: cell-based; design: was truncated from WT and includes amino acids 67 - 355; expressed in transfected cells; host or cells: Xenopus laevis oocytes (cRNA injection), excised inside-out patches; settings: 100 µM decyl-MTS for at least 30 s, symmetrical K+, pH 7.4, +40 mV
T2 sequence (P57789 67-355 isoform P57789-4): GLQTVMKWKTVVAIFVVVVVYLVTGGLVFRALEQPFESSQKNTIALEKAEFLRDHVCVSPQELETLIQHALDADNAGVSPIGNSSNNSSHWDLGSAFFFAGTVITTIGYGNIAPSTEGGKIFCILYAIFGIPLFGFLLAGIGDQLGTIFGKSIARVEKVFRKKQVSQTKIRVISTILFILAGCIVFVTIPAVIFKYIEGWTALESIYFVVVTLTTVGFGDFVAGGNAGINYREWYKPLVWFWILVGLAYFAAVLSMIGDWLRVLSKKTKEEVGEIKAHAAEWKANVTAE
Description: First, we measured WT TREK-1, WT TRAAK and TREK-2^* channels without modifiable cysteine residues as references. Upon application of 100 µM of decyl-MTS for at least 30 s to the respective channel in excised membrane patches, no change in current amplitudes was recognized (Fig. 2a and Supplementary Fig. 2a, b). Note, that patch integrity and channel regulation were tested with either 1 mM tetra-pentyl-ammonium (TPenA) and a short pHi activation step. Next, we conducted systematic cysteine scanning mutagenesis of the entire pCt and examined the effect of charged and aliphatic MTS probes. […] Remarkably, all hit residues face toward the inner leaflet of the lipid bilayer (Fig. 2b, inlay).
In this study, the coding sequences of human K2P2.1 TREK-1 (Genbank accession number: NM_172042), rat K2P2.1 TREK-1 (NM_172041.2), human K2P10.1 TREK-2 (NM_021161) and human K2P4.1 TRAAK (AF247042) were used. […]
Xenopus laevis oocytes were surgically removed from anesthetized adult females, treated with type II collagenase (Sigma-Aldrich/Merck, Germany) and manually defolliculated. […] Currents were recorded with an EPC10 amplifier (HEKA electronics, Germany) and sampled at 10 kHz or higher and filtered with 3 kHz (-3 dB) or higher as appropriate for the sampling rate. […]

IC50 [1] | effect on current amplitude [2] | SMILES
1000 ± 1000 nM |  | NCCC(Oc1ccc(C(F)(F)F)cc1)c1ccccc1 (centres unmarked) [NFx, Norfluoxetine hydrochloride]
 | no change; also recorded: no effect | CCCCCCCCCCSS(C)(=O)=O [decyl-MTS, Decyl-MethaneThioSulfonate]

— article PMC11143257, “Atomistic mechanism of coupling between cytosolic sensor domain and selectivity filter in TREK K2P channels” (Nature Communications, 2024)
